Columns and labels:
[1] = system: human APCs (myeloid cells); test: APC-tumor co-culture / myeloid cell stimulation, surface markers by flow cytometry; format: cell-based; conditions: 18 hours of stimulation; compared with the corresponding unconjugated antibody unless the value names another comparator
Description: Human antigen presenting cells (APCs) were negatively selected from human peripheral blood mononuclear cells obtained from healthy blood donors (Stanford Blood Center) by density gradient centrifugation using a RosetteSep Human Monocyte Enrichment Cocktail (Stem Cell Technologies) containing monoclonal antibodies against CD2, CD3, CD8, CD19, CD56, CD66b and CD235a. Immature APCs were subsequently purified to >97% purity via negative selection using an EasySep Human Monocyte Enrichment Kit without CD16 depletion containing monoclonal antibodies against CD2, CD3, CD19, CD20, CD56, CD66b, CD123 and CD235a.
Tumor cells were resuspended in PBS with 0.1% fetal bovine serum (FBS) at 1 to 10×10^6 cells/mL. Cells were subsequently incubated with 2 μM CFSE to yield a final concentration of 1 μM. The reaction was ended after 2 minutes via the addition of 10 mL complete medium with 10% FBS and washed once with complete medium. Cells were either fixed in 2% paraformaldehyde and washed three times with PBS or left unfixed prior to freezing the cells in 10% DMSO, 20% FBS and 70% medium.
2×10^5 APCs were incubated with or without 6.5×10^5 autologous or allogeneic CFSE-labeled tumor cells in 96-well plates (Corning) containing IMDM medium (Gibco) supplemented with 10% fetal bovine serum, 100 U/mL penicillin, 100 μg/mL streptomycin, 2 mM L-glutamine, sodium pyruvate, non-essential amino acids, 50 μM 2-ME and, where indicated, various concentrations of anti-tumor antibody and the indicated adjuvants. Cells and cell-free supernatants were analyzed after 18 hours via flow cytometry.
Human antigen presenting cells (APCs) were negatively selected from human peripheral blood mononuclear cells obtained from healthy blood donors (Stanford Blood Center) by density gradient centrifugation using a RosetteSep Human Monocyte Enrichment Cocktail (Stem Cell Technologies) containing monoclonal antibodies against […]. Immature APCs were subsequently purified to >97% purity via negative selection using an EasySep Human Monocyte Enrichment Kit without CD16 depletion containing monoclonal antibodies against CD14, CD16, CD40, CD86, CD123, and HLA-DR.
2×10^5 APCs were incubated with or without 6.5×10^5 autologous or allogeneic CFSE-labeled tumor cells in 96-well plates (Corning) containing IMDM medium (Gibco) supplemented with 10% fetal bovine serum, 100 U/mL penicillin, 100 μg/mL streptomycin, 2 mM L-glutamine, sodium pyruvate, non-essential amino acids, 50 μM 2-ME and, where indicated, various concentrations of antibody. Cells and cell-free supernatants were analyzed after 18 hours via flow cytometry.
2×10^5 APCs were incubated with or without 6.5×10^5 allogeneic CFSE-labeled tumor cells in 96-well plates (Corning) containing IMDM medium (Gibco) supplemented with 10% fetal bovine serum, 100 U/mL penicillin, 100 μg/mL streptomycin, 2 mM L-glutamine, sodium pyruvate, non-essential amino acids and, where indicated, various concentrations of unconjugated CD20 antibody, and immunoconjugates of the invention were prepared according to the examples above. Cells and cell-free supernatants were analyzed after 18 hours via flow cytometry or ELISA.

[2] = system: human APCs (myeloid cells); test: Cytokine secretion from human APCs / myeloid cells (cell free supernatants); format: cell-based; conditions: 36 hours of stimulation; compared to equimolar unconjugated antibody
Protocol: After 18 hours, cell free supernatants were analyzed for cytokine secretion via cytokine bead arrays; n=3. P-values≤0.05 depicted by *, P-values≤0.01 depicted by **, P-values≤0.001 depicted by ***, P-values≤0.0001 depicted by ****.
2×10^5 APCs were incubated with or without 6.5×10^5 autologous or allogeneic CFSE-labeled tumor cells in 96-well plates (Corning) containing IMDM medium (Gibco) supplemented with 10% fetal bovine serum, 100 U/mL penicillin, 100 μg/mL streptomycin, 2 mM L-glutamine, sodium pyruvate, non-essential amino acids, 50 μM 2-ME and, where indicated, various concentrations of anti-tumor antibody and the indicated adjuvants. […]
While the expression of T cell stimulatory molecules such as CD40, CD86 and HLA-DR is necessary for effective T cell activation, APCs also influence the nature of the ensuing immune response through the secretion of cytokines. Therefore, the capacity of immunoconjugates to elicit cytokine secretion in human APCs following stimulation was investigated as described above.
The capacity of these immunoconjugates to elicit cytokine secretion in human APCs following stimulation was investigated as described in Example 3 above.
2×10^5 APCs were incubated with or without 6.5×10^5 allogeneic CFSE-labeled tumor cells in 96-well plates (Corning) containing IMDM medium (Gibco) supplemented with 10% fetal bovine serum, 100 U/mL penicillin, 100 μg/mL streptomycin, 2 mM L-glutamine, sodium pyruvate, non-essential amino acids and, where indicated, various concentrations of unconjugated CD20 antibody, and immunoconjugates of the invention were prepared according to the examples above. […]

Rituximab-Pam2CSK4 Boltbody
superior: CD16 downregulation on myeloid cells [1] | CD40 upregulation on myeloid cells [1] | CD86 upregulation on myeloid cells [1] | IL-1β secretion from myeloid cells [2] | TNFα secretion from myeloid cells [2]

Rituximab-Pam3CSK4 Boltbody
superior: CD16 downregulation on myeloid cells [1] | CD40 upregulation on myeloid cells [1] | CD86 upregulation on myeloid cells [1] | CD123 upregulation on myeloid cells [1] | IL-1β secretion from myeloid cells [2] | TNFα secretion from myeloid cells [2]
